# Assay results as given in article PMC6627331, “Identification of Small Molecule Inhibitors of Staphylococcus aureus RnpA” (Antibiotics, 2019).
# Read-outs that look alike come from different tables or passages of the source.
# Key:
# [1] = tested on: S. aureus strain UAMS-1, USA300 or BAA-1708; experiment: Selection of spontaneous resistant cells in liquid culture; assay type: cell-based, Staphylococcus aureus; settings: 24 h incubation in liquid culture, 2× MIC
# [2] = tested on: S. aureus UAMS-1; experiment: Minimum inhibitory concentration (MIC) testing; assay type: cell-based, Staphylococcus aureus
# Experimental: Minimum inhibitory concentration (MIC) testing was performed using to Clinical & Laboratory Standards Institute (CLSI) guidelines. Accordingly, individual wells of a 96-well microtiter plate were inoculated with 10^4 colony forming units (CFU) of S. aureus UAMS-1 containing two-fold increasing concentrations (0 to 256 μg·mL^−1) of the indicated antibiotic or putative RnpA inhibitor compound, and incubated at 37 °C for 16 h in MHB. The MIC was defined as the lowest concentration of compound in which there was no visible bacterial growth in the well.
# [3] = biological target: T1, S. aureus RnpA (Staphylococcus aureus, UniProt P0A0H5); experiment: RnpA-mediated in vitro spa mRNA degradation assay; assay type: biochemical; settings: read-out: Degradation IC50
# T1 construct: hexahistidine (His6) (N); made in house; host or cells: E. coli BL21 (DE3), plasmid pEXP5-nt
# T1 sequence (P0A0H5 1-117): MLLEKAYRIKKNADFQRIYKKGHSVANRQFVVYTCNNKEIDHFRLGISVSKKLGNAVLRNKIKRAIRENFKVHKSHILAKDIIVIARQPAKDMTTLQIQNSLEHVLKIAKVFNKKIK
# Experimental: RnpA-mediated RNA degradation assays were performed as previously described. Briefly, 1 pmol of spa mRNA was incubated with 5 pmol RnpA at 37 °C for 30 min in reaction buffer (50 mM Tris-HCl pH 8.0, 2 mM NaCl, 2 mM MgCl2) in the absence or presence of the indicated compound (≤500 µM). The inhibitory effects of the test compounds were calculated using Biorad ImageLab densitometry software to measure the signal intensity of the spa band in the negative control (spa alone), positive control (RnpA + spa + DMSO), and experimental samples (RnpA + spa + test compound) separated on a 1.2% formaldehyde-agarose gel. Background signal from the positive control sample sometimes resulted due to incomplete degradation of transcripts. Thus, the signal intensity of the positive control was taken into account when calculating the percent inhibition. The raw signals from the positive (+RnpA) and negative (-RnpA) controls were converted into percentage, by normalizing the positive control (+RnpA) signal to 0% RnpA inhibition and the negative control (-RnpA) to 100% RnpA inhibition. Similarly, the raw signals from the test compounds were reported as percent RnpA inhibition using the following equation: [(experimental−positive control)/(negative control−positive control)] × 100. […] To assess IC50, % RnpA degradation inhibition was plotted against compound concentration; a linear best fit equation was generated and utilized to calculate the IC50.
# [4] = tested on: S. aureus UAMS-1; experiment: Fractional inhibitory concentration (FIC) testing; assay type: cell-based, Staphylococcus aureus; settings: checkerboard, 16 h
# Experimental: Fractional inhibitory concentration (FIC) testing was performed to determine the combined effects of the indicated antibiotic and the putative RnpA inhibitor following the procedures of Odds and colleagues. To do so, individual wells of a 96-well microtiter plate were inoculated with 10^4 colony forming units (CFU) of S. aureus UAMS-1 in MHB. Each row of the plate contained two-fold increasing concentrations of the indicated antibiotic (0, 0.03, 0.06, 0.125, 0.25, 0.5, 1, 2, or 4× MIC), whereas each column contained increasing concentrations of the putative RnpA inhibitor compound (0, 0.03, 0.06, 0.125, 0.25, 0.5, 1, 2, or 4× MIC). Plates were incubated at 37 °C for 16 h and growth was determined by the unaided eye. The FIC was defined using the following formula: FIC = (MIC of Drug A in Combination/MIC of Drug A Alone) + (MIC of Drug B in Combination/MIC of Drug B Alone). A synergistic interaction was defined as an FIC value ≤ 0.5, an additive interaction as 0.5 < FIC < 1, no interaction as 1 ≤ FIC < 4, and an antagonistic interaction as FIC ≥ 4.
# [5] = tested on: S. aureus BAA-1708; experiment: MIC against clinical strain BAA-1708; assay type: cell-based, Staphylococcus aureus; settings: S. aureus clinical strain BAA-1708
# [6] = JC2 stability (degradation test) in Mueller Hinton broth by HPLC; assay type: physicochemical; settings: 37 °C, read-out: half-life in Mueller Hinton media (MH t1/2) (converted)
# Experimental: Degradation test: Blank sample was prepared with 20 µL Mueller Hinton broth (BD biosciences, US) diluted in 180 µL of 2 % DMSO in 1:1 (v/v) acetonitrile : water solution, and directly submitted to HPLC for evaluation. A 5 mM JC2 stock solution was prepared by diluting the 25 mM stock solution with DMSO. 4 µL of 5 mM […] solution was added into 196 µL of MH, and incubated at 37 °C for the whole course of evaluation. 20 µL of each incubated sample was taken at 0, 0.5, 1, 2, 4, 8, 16 hr, and were prepared in the same manner as the blank sample before submitting to HPLC.
# Chromatography was performed on an Agilent 1200 series HPLC system that equipped with a vacuum degasser, a quaternary pump, a diode array and multiple wavelength detector SL, and a standard and preparative autosampler (Agilent Technologies, US). A Hyspersil GOLD^TM C-18 4.6 x 250 mm, 3 µm column was used for separation. A gradient elution method was used as the mobile phase by mixing solvent A (water, 0.1% formic Acid) and solvent B (acetonitrile, 0.1% formic acid). The time program for gradient elution is shown in Table A. The flow rate was set at 1.0 ml/min, and 20µl of sample was injected each time. The detector monitored absorption at 254, 215, 280 nm.
# Chemstation Offline (Agilent Technologies, US) was used to analyze the data. […]
# [7] = tested on: E. coli; experiment: Antimicrobial activity toward E. coli; assay type: cell-based, Escherichia coli
# [8] = tested on: HepG2 cells; experiment: MTT human cell cytotoxicity testing; assay type: cell-based; settings: SAR figures; 4× MIC exposure for 24 h
# Experimental: Human HepG2 hepatocytes were seeded in individual wells of a 96-well cell-culture treated microtiter plate at a concentration of 1 × 10^5 cells per well and incubated in Dulbecco’s Modified Eagle Medium (DMEM) supplemented with 10% fetal bovine serum at 37 °C with 5% carbon dioxide overnight. Cells were then treated with DMSO (negative control) or the indicated agent for 24 h. MTT Cell Proliferation Assay Kits were used to assess viability according to the manufacturer’s recommendations (American Type Culture Collection; Manassas, VA, USA).
structure (smiles),measurement,setting,value
CC1CCCCN1C(=O)Nc1cc(Cl)cc(Cl)c1 (centres unmarked) [JC2],selection of spontaneous resistant cells,[1],unable to select for spontaneous JC2 resistant
same,MIC,"[2]; S. aureus UAMS-1, 16 h in MHB, listed as 9049625",1 µg/mL
same,MIC,"[2]; Staphylococcus aureus, UAMS1, 16 h, Table S1, mupirocin synergy screening initial hits, read-out: MIC",1 µg/mL
same,MIC,"[2]; Staphylococcus aureus, UAMS1, SAR figures, S. aureus UAMS-1, read-out: MIC",0.5 µg/mL
same,IC50,[3],180 µM
same,FIC in combination with ampicillin,[4],2
same,FIC in combination with erythromycin,[4],2
same,FIC in combination with mupirocin,[4],0.875
same,FIC in combination with trimethoprim,[4],2
same,MIC,[5],1 µg/mL
same,MIC,"[5]; Staphylococcus aureus, BAA1708, read-out: MIC",1 µg/mL
same,half-life at 100 µM,[6],~2 h
same,antimicrobial activity toward E. coli,[7],did not shown antimicrobial activity
same,MTT = % HepG2 cell survival,[8],87%
